According to patent US8003823B2, “Halo active aromatic sulfonamide organic compounds and odor control uses therefor” (priority 2002, dated 2011):

Tests used:
[1] = Odor control spray test, six person human panel: garlic odor (DMSO); parameters: key: E=Excellent, immediate removal of odor, no remaining odor.; G=Good, Immediate (within seconds) reduction of odor, very slight but detectable trace odor remains.; F=Fair, Immediate (within seconds) reduction, more pronounced odor remains.; P=Detectable reduction in odor but rate of reduction is slow and a much more pronounced odor remains; conditions: 1 g DMSO, 3 g of 1% w/w solution with 0.3% Avenal S-74, pH 8.0-9.0, sprayed, 20° C.
Description: (§1) For purposes of conducting the test in accordance with the below listed Examples a series of odorous test reagents were prepared. The utilized odorous test reagents are in accordance with the following:
DMSO (dimethyl sulfoxide) 1 g was used for each test.
(§2) Unless otherwise specified separate 1% w/w solutions in water of each halo active aromatic sulfonamide derivative were prepared for use. Each solution also contained 0.3% Avenal S-74. The pH of the resulting formulations varied between 8.0 and 9.0.
(§3) The testing protocol for Examples 1 thru 12 involved is as follows: The defined odorous reagents were added to a beaker, watch glass, or petri dish. For each aromatic sulfonamide derivative, 3 grams of the formulated odor control solution defined above were sprayed with a trigger sprayer, separately onto each odor (onion, garlic, fox urine, rotten egg. Odor evaluations were then made by a six person human panel.
(§4) The evaluation criteria utilized is as follows;
(§5) All test evaluations were made at 20° C.

[2] = Odor control spray test, six person human panel: onion odor; parameters: key: E=Excellent, immediate removal of odor, no remaining odor.; G=Good, Immediate (within seconds) reduction of odor, very slight but detectable trace odor remains.; F=Fair, Immediate (within seconds) reduction, more pronounced odor remains.; P=Detectable reduction in odor but rate of reduction is slow and a much more pronounced odor remains; conditions: 2 g chopped white onion, 3 g of 1% w/w solution with 0.3% Avenal S-74, pH 8.0-9.0, sprayed, 20° C.
Description: as §1
2 g samples of chopped white onion (Approximately ⅛″ cubes) were prepared and used for each test.
as §2, §3, §4, §5

[3] = Odor control spray test, six person human panel: rotten egg odor (sodium sulfide + acetic acid); parameters: key: E=Excellent, immediate removal of odor, no remaining odor.; G=Good, Immediate (within seconds) reduction of odor, very slight but detectable trace odor remains.; F=Fair, Immediate (within seconds) reduction, more pronounced odor remains.; P=Detectable reduction in odor but rate of reduction is slow and a much more pronounced odor remains; conditions: 0.1 g 5% sodium sulfide solution + 2 drops glacial acetic acid, 3 g of 1% w/w solution with 0.3% Avenal S-74, pH 8.0-9.0, sprayed, 20° C.
Description: as §1
0.1 g of a 5% sodium sulfide solution was added to a beaker and 2 drops of glacial acetic acid was added to prepare the rotten egg scent and used for each test.
as §2, §3, §4, §5

[4] = Odor control spray test, six person human panel: fox urine odor; parameters: key: E=Excellent, immediate removal of odor, no remaining odor.; G=Good, Immediate (within seconds) reduction of odor, very slight but detectable trace odor remains.; F=Fair, Immediate (within seconds) reduction, more pronounced odor remains.; P=Detectable reduction in odor but rate of reduction is slow and a much more pronounced odor remains; conditions: 0.5 g red fox urine, 3 g of 1% w/w solution with 0.3% Avenal S-74, pH 8.0-9.0, sprayed, 20° C.
Description: as §1
0.5 g of deer hunter's grade red fox urine was used for each test.
as §2, §3, §4, §5

[5] = Stability of sulfonamide in base formulation at various pHs and alcohols; assay type: physicochemical
Description: In order to evaluate the stability of various sulfonamide compounds for use in odor control, the stability of N-chloro-4carboxybenzenesulfonamide disodium salt was evaluated at various pHs. A base sulfonamide formulation was prepared in accordance with the following formulation: […]
The pH of 20 ml sample of the base formulation is 8.7. The temperature of the sample was raised to 50° C. and the sample was allowed to stand for 30 days.
21. The test protocol of Example 20 was repeated except that the pH of the sample was adjusted to 6.0, with 1N sulfuric acid and the sample was allowed to stand for 1 day. At the end of this period 0%, of the N-chloro-4-carboxybenzenesulfonamide disodium salt remained.
22. The test procedure of Example 20 was repeated, wherein the pH of the sample was adjusted to 6.0 with 1N sulfuric acid and the t-Butanol was replaced with ethanol. The solution was allowed to stand 1 day at which time 0% of the sulfonamide compound remained.
23. The test procedure of Example 20 was repeated where the pH of the sample was 8.7 and the t-butanol was replaced with ethanol. The sample was allowed to stand for 7 days. At the end of this period 0%, the N-chloro-4-carboxybenzenesulfonamide disodium salt remained.
24. The test procedure of Example 20 was repeated, wherein the pH of the sample was adjusted to 10.3 with 1N sodium hydroxide and the t-Butanol was replaced with ethanol. The solution was allowed to stand 30 days at which time 70% of the sulfonamide compound remained.
25. The test procedure of Example 20 was repeated, wherein the pH of the sample was adjusted to 6.0 with 1N sulfuric acid and the t-Butanol was replaced with isopropanol. The solution was allowed to stand 1 day at which time 0% of the sulfonamide compound remained.
26. The test procedure of Example 20 was repeated where the pH of the sample was 8.7 and the t-butanol was replaced with isopropanol. The sample was allowed to stand for 7 days. At the end of this period 50%, the N-chloro-4-carboxybenzenesulfonamide disodium salt remained.
27. The test procedure of Example 20 was repeated, wherein the pH of the sample was adjusted to 10.3 with 1N sodium hydroxide and the t-Butanol was replaced with isopropanol. The solution was allowed to stand 30 days at which time 90% of the sulfonamide compound remained.

Row | sulfonamide compound remained ([5]; base formulation with t-Butanol, pH 8.7, 50° C., 30 days) | sulfonamide compound remained ([5]; t-Butanol replaced with ethanol, pH 6.0, 50° C., 1 day) | sulfonamide compound remained ([5]; t-Butanol replaced with ethanol, pH 10.3 with 1N sodium hydroxide, 50° C., 30 days) | sulfonamide compound remained ([5]; t-Butanol replaced with isopropanol, pH 6.0, 50° C., 1 day) | sulfonamide compound remained ([5]; t-Butanol replaced with isopropanol, pH 10.3 with 1N sodium hydroxide, 50° C., 30 days) | sulfonamide compound remained ([5]; t-Butanol, pH adjusted to 6.0 with 1N sulfuric acid, 50° C., 1 day) | sulfonamide compound remained ([5]; t-butanol replaced with ethanol, pH 8.7, 50° C., 7 days) | sulfonamide compound remained ([5]; t-butanol replaced with isopropanol, pH 8.7, 50° C., 7 days) | Molecule | Garlic odor evaluation [1] | Onion odor evaluation [2] | Rotten Egg odor evaluation [3] | Fox Urine odor evaluation [4]
1 | – | – | – | – | – | – | – | – | O=C([O-])c1ccc(S(=O)(=O)[N-]Cl)cc1.[Na+].[Na+] [Example 12] | F | E | E | E
2 | – | – | – | – | – | – | – | – | O=[N+]([O-])c1ccc(S(=O)(=O)[N-]Cl)cc1.[Na+] [Example 11] | F | G | F | E
3 | 99.5% | 0% | 70% | 0% | 90% | 0% | 0% | 50% | N-chloro-4-carboxybenzenesulfonamide disodium salt | – | – | – | –
